Measured values published in patent US8623907B2, “Herbicides” (Syngenta Participations, AG, priority 2008, dated 2014).

How the values were obtained:
Format in all cases: in vivo
Solanum nigrum (SOLNI) [1] = test: Test Example B, pre-emergence herbicidal activity; conditions: Rate 250 g/ha; evaluated after 13 days; 100=total damage to plant, 0=no damage to plant
Method: (§1) Seeds of a variety of test species were sown in standard soil in pots. After cultivation for one day (pre-emergence) or after 8 days cultivation (post-emergence) under controlled conditions in a glasshouse (at 24/16° C., day/night; 14 hours light; 65% humidity), the plants were sprayed with an aqueous spray solution derived from the formulation of the technical active ingredient in acetone/water (50:50) solution containing 0.5% Tween 20 (polyoxyethelyene sorbitan monolaurate, CAS RN 9005-64-5). The test plants were then grown in a glasshouse under controlled conditions in a glasshouse (at 24/16° C., day/night; 14 hours light; 65% humidity) and watered twice daily. After 13 days for pre and post-emergence, the test was evaluated (100=total damage to plant; 0=no damage to plant). Alopecurus myosuroides (ALOMY), Avena fatua (AVEFA), Setaria faberi (SETFA), Echinochloa crus-galli (ECHCG), Solanum nigrum (SOLNI) and Amaranthus retroflexus (AMARE)

[2] = test system: Echinochloa crus-galli (ECHCG); test: Test Example B, pre-emergence herbicidal activity; conditions: Rate 250 g/ha; evaluated after 13 days; 100=total damage to plant, 0=no damage to plant
Method: as §1

Setaria faberi (SETFA) [3] = test: Test Example B, pre-emergence herbicidal activity; conditions: Rate 250 g/ha; evaluated after 13 days; 100=total damage to plant, 0=no damage to plant
Method: as §1

[4] = test system: Amaranthus retroflexus (AMARE); test: Test Example B, pre-emergence herbicidal activity; conditions: Rate 250 g/ha; evaluated after 13 days; 100=total damage to plant, 0=no damage to plant
Method: as §1

[5] = test system: Alopecurus myosuroides (ALOMY); test: Test Example B, pre-emergence herbicidal activity; conditions: Rate 250 g/ha; evaluated after 13 days; 100=total damage to plant, 0=no damage to plant
Method: as §1

Avena fatua (AVEFA) [6] = test: Test Example B, pre-emergence herbicidal activity; conditions: Rate 250 g/ha; evaluated after 13 days; 100=total damage to plant, 0=no damage to plant
Method: as §1

Solanum nigrum (SOLNI) [7] = test: Test Example B, post-emergence herbicidal activity; conditions: Rate 250 g/ha; evaluated after 13 days; 100=total damage to plant, 0=no damage to plant
Method: as §1

[8] = test system: Echinochloa crus-galli (ECHCG); test: Test Example B, post-emergence herbicidal activity; conditions: Rate 250 g/ha; evaluated after 13 days; 100=total damage to plant, 0=no damage to plant
Method: as §1

Setaria faberi (SETFA) [9] = test: Test Example B, post-emergence herbicidal activity; conditions: Rate 250 g/ha; evaluated after 13 days; 100=total damage to plant, 0=no damage to plant
Method: as §1

[10] = test system: Amaranthus retroflexus (AMARE); test: Test Example B, post-emergence herbicidal activity; conditions: Rate 250 g/ha; evaluated after 13 days; 100=total damage to plant, 0=no damage to plant
Method: as §1

[11] = test system: Alopecurus myosuroides (ALOMY); test: Test Example B, post-emergence herbicidal activity; conditions: Rate 250 g/ha; evaluated after 13 days; 100=total damage to plant, 0=no damage to plant
Method: as §1

Avena fatua (AVEFA) [12] = test: Test Example B, post-emergence herbicidal activity; conditions: Rate 250 g/ha; evaluated after 13 days; 100=total damage to plant, 0=no damage to plant
Method: as §1

[13] = test system: Digitaria sanguinalis (DIGSA); test: Test Example 1, post-emergence herbicidal activity; conditions: Rate 500 g/ha; evaluated 15 days later; 100=total damage to plant, 0=no damage to plant
Method: (§2) Monocotyledonous and dicotyledonous test plants were sown in standard soil in pots. After cultivation for one day (pre-emergence) or after 10 days cultivation (post-emergence) under controlled conditions in a glasshouse, the plants were sprayed with an aqueous spray solution derived from the formulation of the technical active ingredient in 0.6 ml acetone and 45 ml formulation solution containing 10.6% Emulsogen EL (Registry number 61791-12-6), 42.2% N-methylpyrrolidone, 42.2% dipropylene glycol monomethyl ether (Registry number 34590-94-8) and 0.2% X-77 (Registry number 11097-66-8). The test plants were then grown in a greenhouse under optimum conditions until, 15 days later for post-emergence and 20 days for pre-emergence, the test was evaluated (100=total damage to plant; 0=no damage to plant). Alopecurus myosuroides (ALOMY), Avena fatua (AVEFA), Lolium perenne (LOLPE), Setaria faberi (SETFA), Digitaria sanguinalis (DIGSA), Echinochloa crus-galli (ECHCG)

[14] = test system: Echinochloa crus-galli (ECHCG); test: Test Example 1, post-emergence herbicidal activity; conditions: Rate 500 g/ha; evaluated 15 days later; 100=total damage to plant, 0=no damage to plant
Method: as §2

Setaria faberi (SETFA) [15] = test: Test Example 1, post-emergence herbicidal activity; conditions: Rate 500 g/ha; evaluated 15 days later; 100=total damage to plant, 0=no damage to plant
Method: as §2

[16] = test system: Alopecurus myosuroides (ALOMY); test: Test Example 1, post-emergence herbicidal activity; conditions: Rate 500 g/ha; evaluated 15 days later; 100=total damage to plant, 0=no damage to plant
Method: as §2

Avena fatua (AVEFA) [17] = test: Test Example 1, post-emergence herbicidal activity; conditions: Rate 500 g/ha; evaluated 15 days later; 100=total damage to plant, 0=no damage to plant
Method: as §2

Lolium perenne (LOLPE) [18] = test: Test Example 1, post-emergence herbicidal activity; conditions: Rate 500 g/ha; evaluated 15 days later; 100=total damage to plant, 0=no damage to plant
Method: as §2

[19] = test system: Digitaria sanguinalis (DIGSA); test: Test Example 1, pre-emergence herbicidal activity; conditions: Rate 500 g/ha; evaluated 20 days later; 100=total damage to plant, 0=no damage to plant
Method: as §2

[20] = test system: Echinochloa crus-galli (ECHCG); test: Test Example 1, pre-emergence herbicidal activity; conditions: Rate 500 g/ha; evaluated 20 days later; 100=total damage to plant, 0=no damage to plant
Method: as §2

Setaria faberi (SETFA) [21] = test: Test Example 1, pre-emergence herbicidal activity; conditions: Rate 500 g/ha; evaluated 20 days later; 100=total damage to plant, 0=no damage to plant
Method: as §2

[22] = test system: Alopecurus myosuroides (ALOMY); test: Test Example 1, pre-emergence herbicidal activity; conditions: Rate 500 g/ha; evaluated 20 days later; 100=total damage to plant, 0=no damage to plant
Method: as §2

Avena fatua (AVEFA) [23] = test: Test Example 1, pre-emergence herbicidal activity; conditions: Rate 500 g/ha; evaluated 20 days later; 100=total damage to plant, 0=no damage to plant
Method: as §2

Lolium perenne (LOLPE) [24] = test: Test Example 1, pre-emergence herbicidal activity; conditions: Rate 500 g/ha; evaluated 20 days later; 100=total damage to plant, 0=no damage to plant
Method: as §2

Cc1ccc(-c2ccc(Cl)cc2)cc1C1(Cl)C(=O)COC(C)(C)C1=O (stereo not drawn) [Compound A3, 4-chloro-4-(4′-chloro-4-methylbiphenyl-3-yl)-2,2-dimethylpyran-3,5-dione]
Pre-Emergence Activity SOLNI (damage to plant) (Solanum nigrum (SOLNI) [1]): 0
Pre-Emergence Activity ECHCG (damage to plant) [2]: 50
Pre-Emergence Activity SETFA (damage to plant) (Setaria faberi (SETFA) [3]): 0
Pre-Emergence Activity AMARE (damage to plant) [4]: 0
Pre-Emergence Activity ALOMY (damage to plant) [5]: 0
Pre-Emergence Activity AVEFA (damage to plant) (Avena fatua (AVEFA) [6]): 0
Post-Emergence Activity SOLNI (damage to plant) (Solanum nigrum (SOLNI) [7]): 0
Post-Emergence Activity ECHCG (damage to plant) [8]: 80
Post-Emergence Activity SETFA (damage to plant) (Setaria faberi (SETFA) [9]): 80
Post-Emergence Activity AMARE (damage to plant) [10]: 0
Post-Emergence Activity ALOMY (damage to plant) [11]: 0
Post-Emergence Activity AVEFA (damage to plant) (Avena fatua (AVEFA) [12]): 0

CCc1ccc(-c2ccc(Cl)cc2Cl)cc1C1([N+](=O)[O-])C(=O)C(C)(C)OC(C)(C)C1=O [Compound A1, 4-(2′,4′-dichloro-4-ethylbiphen-3-yl)-2,2,6,6-tetramethyl-4-nitropyran-3,5-dione]
Post-Emergence Activity DIGSA (damage to plant) [13]: 100
Post-Emergence Activity ECHCG (damage to plant) [14]: 100
Post-Emergence Activity SETFA (damage to plant) (Setaria faberi (SETFA) [15]): 100
Post-Emergence Activity ALOMY (damage to plant) [16]: 60
Post-Emergence Activity AVEFA (damage to plant) (Avena fatua (AVEFA) [17]): 70
Post-Emergence Activity LOLPE (damage to plant) (Lolium perenne (LOLPE) [18]): 100
Pre-Emergence Activity DIGSA (damage to plant) [19]: 70
Pre-Emergence Activity ECHCG (damage to plant) [20]: 20
Pre-Emergence Activity SETFA (damage to plant) (Setaria faberi (SETFA) [21]): 0
Pre-Emergence Activity ALOMY (damage to plant) [22]: 20
Pre-Emergence Activity AVEFA (damage to plant) (Avena fatua (AVEFA) [23]): 30
Pre-Emergence Activity LOLPE (damage to plant) (Lolium perenne (LOLPE) [24]): 30

Cc1ccc(-c2ccc(Cl)cc2)cc1C1(Cl)C(=O)C(C)(C)OC(C)(C)C1=O [Compound A4, 4-Chloro-4-(4′-chloro-4-methylbiphenyl-3-yl)-2,2,6,6-tetramethyl-pyran-3,5-dione]
Pre-Emergence Activity SOLNI (damage to plant) (Solanum nigrum (SOLNI) [1]): 0
Pre-Emergence Activity ECHCG (damage to plant) [2]: 100
Pre-Emergence Activity SETFA (damage to plant) (Setaria faberi (SETFA) [3]): 100
Pre-Emergence Activity AMARE (damage to plant) [4]: 0
Pre-Emergence Activity ALOMY (damage to plant) [5]: 30
Pre-Emergence Activity AVEFA (damage to plant) (Avena fatua (AVEFA) [6]): 70
Post-Emergence Activity SOLNI (damage to plant) (Solanum nigrum (SOLNI) [7]): 0
Post-Emergence Activity ECHCG (damage to plant) [8]: 100
Post-Emergence Activity SETFA (damage to plant) (Setaria faberi (SETFA) [9]): 100
Post-Emergence Activity AMARE (damage to plant) [10]: 0
Post-Emergence Activity ALOMY (damage to plant) [11]: 100
Post-Emergence Activity AVEFA (damage to plant) (Avena fatua (AVEFA) [12]): 90

CCc1ccc(-c2ccc(Cl)cc2Cl)cc1C1(Cl)C(=O)C(C)(C)OC(C)(C)C1=O [Compound A2, 4-chloro-4-(2′,4′-dichloro-4-ethylbiphen-3-yl)-2,2,6,6-tetramethylpyran-3,5-dione]
Post-Emergence Activity DIGSA (damage to plant) [13]: 100
Post-Emergence Activity ECHCG (damage to plant) [14]: 100
Post-Emergence Activity SETFA (damage to plant) (Setaria faberi (SETFA) [15]): 100
Post-Emergence Activity ALOMY (damage to plant) [16]: 60
Post-Emergence Activity AVEFA (damage to plant) (Avena fatua (AVEFA) [17]): 80
Post-Emergence Activity LOLPE (damage to plant) (Lolium perenne (LOLPE) [18]): 100
Pre-Emergence Activity DIGSA (damage to plant) [19]: 90
Pre-Emergence Activity ECHCG (damage to plant) [20]: 90
Pre-Emergence Activity SETFA (damage to plant) (Setaria faberi (SETFA) [21]): 90
Pre-Emergence Activity ALOMY (damage to plant) [22]: 0
Pre-Emergence Activity AVEFA (damage to plant) (Avena fatua (AVEFA) [23]): 50
Pre-Emergence Activity LOLPE (damage to plant) (Lolium perenne (LOLPE) [24]): 70
